Legend:
Type in all cases: functional, cell-based
A549 = assay: Cytotoxicity against human A549 cells by WST-8 assay
HeLa = assay: Cytotoxicity against human HeLa cells by WST-8 assay
HCT-116 = assay: Cytotoxicity against human HCT116 cells by WST-8 assay

Row | Compound | IC50 (A549) | IC50 (HeLa) | IC50 (HCT-116)
1 | COc1c(/C=C/C(C)(CO)OC)ccc2c1C(=O)OCc1cc(C)cc(O)c1O2 (configuration not stated) | 2.14 µM | 1.19 µM | 2.66 µM
2 | COc1c(C(CO)C(C)C)ccc2c1C(=O)OCc1cc(C)cc(O)c1O2 (configuration not stated) | 36.1 µM | 14.7 µM | 18.5 µM
3 | C=C(C)C(CO)c1ccc2c(c1OC)C(=O)OCc1cc(C)cc(O)c1O2 (configuration not stated) | 31.3 µM | 18.9 µM | 15.7 µM
4 | C=C(C)C(O)Cc1ccc2c(c1OC)C(=O)OCc1cc(C)cc(O)c1O2 (configuration not stated) | 44.9 µM | 12.8 µM | 22.7 µM
5 | COC1=CC(=O)OC(CO)C1 (configuration not stated) | 47.8 µM | 15.6 µM | 24.4 µM
6 | COc1cccc2c1C(=O)c1c(O)c3c(c(O)c1C2=O)C[C@@](O)(C(=O)CO)C[C@@H]3O[C@H]1C[C@H](N)[C@H](O)[C@H](C)O1 [DOXORUBICIN] |  | 8.96 µM | 2.38 µM

— ChEMBL document CHEMBL4184086, “Sinopestalotiollides A-D, cytotoxic diphenyl ether derivatives from plant endophytic fungus Pestalotiopsis palmarum” (Bioorg Med Chem Lett, 2018)
